Results reported in US8017611B2, “Pyridine and pyrazine derivatives -083” (AstraZeneca AB, priority 2007, dated 2011).
Marks after values point to notes of the source that are not given here.

target: T1, recombinant Axl tyrosine kinase (Homo sapiens, UniProt P30530); assay: In vitro Axl kinase assay (AlphaScreen), Test (a); assay type: biochemical; conditions: test compound at 1 μM; first value quoted
T1 construct: encompassing amino acids 473 to 894 of Axl; GST (N); made in house; host or cells: SF126 insect cells
T1 sequence (P30530 473-894): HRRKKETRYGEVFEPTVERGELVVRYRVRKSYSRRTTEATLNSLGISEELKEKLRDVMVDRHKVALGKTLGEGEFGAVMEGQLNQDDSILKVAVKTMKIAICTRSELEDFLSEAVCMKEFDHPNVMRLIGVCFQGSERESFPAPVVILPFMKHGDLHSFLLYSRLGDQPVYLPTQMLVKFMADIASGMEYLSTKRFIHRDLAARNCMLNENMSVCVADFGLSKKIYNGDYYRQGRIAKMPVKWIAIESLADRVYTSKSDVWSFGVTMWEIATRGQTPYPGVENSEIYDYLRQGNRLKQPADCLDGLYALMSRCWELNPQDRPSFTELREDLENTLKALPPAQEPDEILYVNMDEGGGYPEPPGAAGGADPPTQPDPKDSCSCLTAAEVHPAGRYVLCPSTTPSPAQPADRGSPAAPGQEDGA

SMILES	% Axl tyrosine kinase inhibition at 1 μM concentration
Nc1ncc(-c2ccc(OCCN3CCCCC3)cc2)cc1-c1nc2ncccc2o1 [Example 43B.8]	19.0^††† %
CN(C)CCCOc1ccc(-c2cnc(N)c(-c3nc4ncccc4o3)c2)cc1 [Example 43B.10]	98.4%
CN1CCN(CCCOc2ccc(-c3cnc(N)c(-c4nc5ncccc5o4)c3)cc2)CC1 [Example 43B.14]	95.1%
CS(=O)(=O)N1CCN(CCCOc2ccc(-c3cnc(N)c(-c4nc5ncccc5o4)c3)cc2)CC1 [Example 43B.15]	86.0%
Nc1ncc(-c2ccc(OCCCN3CCS(=O)(=O)CC3)cc2)cc1-c1nc2ncccc2o1 [Example 43B.16]	95.3%
Nc1ncc(-c2ccc(OCCCN3CCCC3)cc2)cc1-c1nc2ncccc2o1 [Example 43B.18]	99.9%
Nc1ncc(-c2ccc(OCCCN3CCOCC3)cc2)cc1-c1nc2ncccc2o1 [Example 43B.19]	95.8%
CCN(CC)CCCOc1ccc(-c2cnc(N)c(-c3nc4ncccc4o3)c2)cc1 [Example 43B.20]	98.9%
CN1C2CCC1CC(Oc1ccc(-c3cnc(N)c(-c4nc5ncccc5o4)c3)cc1)C2 (stereo not shown) [Example 43B.21]	99.6%
Nc1ncc(-c2ccc(OCCOCCN3CCOCC3)cc2)cc1-c1nc2ncccc2o1 [Example 43B.22]	97.7%
Nc1ncc(-c2ccc(OCC#CCN3CCS(=O)(=O)CC3)cc2)cc1-c1nc2ncccc2o1 [Example 43B.23]	95.3%
CN1CCN(S(=O)(=O)CCCOc2ccc(-c3cnc(N)c(-c4nc5ncccc5o4)c3)cc2)CC1 [Example 43B.24]	98.2%
CNCCOc1ccc(-c2cnc(N)c(-c3nc4ncccc4o3)c2)cc1 [Example 43B.26]	97.7%
CNCCCOc1ccc(-c2cnc(N)c(-c3nc4ncccc4o3)c2)cc1 [Example 43B.32]	98.6%
NCCCCOc1ccc(-c2cnc(N)c(-c3nc4ncccc4o3)c2)cc1 [Example 43B.34]	95.7%
CC1CN(CCCOc2ccc(-c3cnc(N)c(-c4nc5ncccc5o4)c3)cc2)CC(C)N1 (stereo not shown) [Example 43B.42]	96.6%
Nc1ncc(-c2ccc(OCCOCCN3CCNCC3)cc2)cc1-c1nc2ncccc2o1 [Example 43B.43]	92.3%
COc1cc(-c2cnc(N)c(-c3nc4ncccc4o3)c2)ccc1OCCN(C)C [Example 43C.3]	99.4%
CCN(CC)CCOc1ccc(-c2cnc(N)c(-c3nc4ncccc4o3)c2)cc1OC [Example 43C.4]	99.8%

SMILES	% Axl tyrosine kinase inhibition at 1 μM concentration
COc1cc(-c2cnc(N)c(-c3nc4ncccc4o3)c2)ccc1OCCN1CCCC1 [Example 43C.5]	99.7%
COc1cc(-c2cnc(N)c(-c3nc4ncccc4o3)c2)ccc1OC[C@@H]1CCCN1C [Example 43C.6]	99.8%
COc1cc(-c2cnc(N)c(-c3nc4ncccc4o3)c2)ccc1OCCN1CCN(C)CC1 [Example 43C.7]	99.1%
COc1cc(-c2cnc(N)c(-c3nc4ncccc4o3)c2)ccc1OCCN1CCCCC1 [Example 43C.8]	99.9%
COc1cc(-c2cnc(N)c(-c3nc4ncccc4o3)c2)ccc1OC1CCCN(C)C1 (stereo not shown) [Example 43C.9]	99.9%
COc1cc(-c2cnc(N)c(-c3nc4ncccc4o3)c2)ccc1OCCCN(C)C [Example 43C.10]	98.9%
COc1cc(-c2cnc(N)c(-c3nc4ncccc4o3)c2)ccc1OC1CCN(C)CC1 [Example 43C.11]	98.9%
COc1cc(-c2cnc(N)c(-c3nc4ncccc4o3)c2)ccc1OCC1CCCN(C)C1 (stereo not shown) [Example 43C.12]	99.6%
COc1cc(-c2cnc(N)c(-c3nc4ncccc4o3)c2)ccc1OCCC1CCCCN1C (stereo not shown) [Example 43C.13]	99.9%
COc1cc(-c2cnc(N)c(-c3nc4ncccc4o3)c2)ccc1OCCCN1CCN(C)CC1 [Example 43C.14]	99.3%
COc1cc(-c2cnc(N)c(-c3nc4ncccc4o3)c2)ccc1OCCCN1CCN(S(C)(=O)=O)CC1 [Example 43C.15]	97.2%
COc1cc(-c2cnc(N)c(-c3nc4ncccc4o3)c2)ccc1OCCCN1CCS(=O)(=O)CC1 [Example 43C.16]	98.1%
COc1cc(-c2cnc(N)c(-c3nc4ncccc4o3)c2)ccc1OCCCN1CCOCC1 [Example 43C.17]	93.5%
CCN(CC)CCCOc1ccc(-c2cnc(N)c(-c3nc4ncccc4o3)c2)cc1OC [Example 43C.18]	99.8%
COc1cc(-c2cnc(N)c(-c3nc4ncccc4o3)c2)ccc1OC1CC2CCC(C1)N2C (stereo not shown) [Example 43C.19]	99.7%
COc1cc(-c2cnc(N)c(-c3nc4ncccc4o3)c2)ccc1OCC#CCN1CCS(=O)(=O)CC1 [Example 43C.20]	98.1%
COc1cc(-c2cnc(N)c(-c3nc4ncccc4o3)c2)ccc1OCCN [Example 43C.21]	99.3%
CNCCOc1ccc(-c2cnc(N)c(-c3nc4ncccc4o3)c2)cc1OC [Example 43C.22]	98.2%

The remaining lines, values ahead:

% Axl tyrosine kinase inhibition at 1 μM concentration	SMILES
98.2%	CN1CCCC(Oc2ccc(-c3cnc(N)c(-c4nc5ncccc5o4)c3)cc2)C1 (stereo not shown) [Example 43B.9]
98.1%	CN1CCC(Oc2ccc(-c3cnc(N)c(-c4nc5ncccc5o4)c3)cc2)CC1 [Example 43B.11]
98.8%	CN1CCCC(COc2ccc(-c3cnc(N)c(-c4nc5ncccc5o4)c3)cc2)C1 (stereo not shown) [Example 43B.12]
96.8%	CN1CCCCC1CCOc1ccc(-c2cnc(N)c(-c3nc4ncccc4o3)c2)cc1 (stereo not shown) [Example 43B.13]
99.5%	CN1CCCC1CCOc1ccc(-c2cnc(N)c(-c3nc4ncccc4o3)c2)cc1 (stereo not shown) [Example 43B.17]
97.5%	NCCOc1ccc(-c2cnc(N)c(-c3nc4ncccc4o3)c2)cc1 [Example 43B.25]
98.2%	Nc1ncc(-c2ccc(OC3CCNC3)cc2)cc1-c1nc2ncccc2o1 (stereo not shown) [Example 43B.27]
98.7%	Nc1ncc(-c2ccc(OC[C@H]3CCCN3)cc2)cc1-c1nc2ncccc2o1 [Example 43B.28]
93.6%	Nc1ncc(-c2ccc(OCCN3CCNCC3)cc2)cc1-c1nc2ncccc2o1 [Example 43B.29]
98.9%	Nc1ncc(-c2ccc(OC3CCCNC3)cc2)cc1-c1nc2ncccc2o1 (stereo not shown) [Example 43B.30]
97.1%	NCCCOc1ccc(-c2cnc(N)c(-c3nc4ncccc4o3)c2)cc1 [Example 43B.31]
98.1%	Nc1ncc(-c2ccc(OC3CCNCC3)cc2)cc1-c1nc2ncccc2o1 [Example 43B.33]
95.9%	Nc1ncc(-c2ccc(OCCC3CCNCC3)cc2)cc1-c1nc2ncccc2o1 [Example 43B.35]
98.3%	Nc1ncc(-c2ccc(OCC3CCNCC3)cc2)cc1-c1nc2ncccc2o1 [Example 43B.36]
97.6%	Nc1ncc(-c2ccc(OCCOC3CCNCC3)cc2)cc1-c1nc2ncccc2o1 [Example 43B.37]
8.1^†††† %	Nc1ncc(-c2ccc(OCCCN3CCNCC3)cc2)cc1-c1nc2ncccc2o1 [Example 43B.38]
98.2%	Nc1ncc(-c2ccc(OCCOC3CNC3)cc2)cc1-c1nc2ncccc2o1 [Example 43B.39]
97.7%	Nc1ncc(-c2ccc(OCCC3CCCCN3)cc2)cc1-c1nc2ncccc2o1 (stereo not shown) [Example 43B.40]
99.0%	Nc1ncc(-c2ccc(OCC3CCCNC3)cc2)cc1-c1nc2ncccc2o1 (stereo not shown) [Example 43B.41]
99.3%	COc1cc(-c2cnc(N)c(-c3nc4ncccc4o3)c2)ccc1OC1CCNC1 (stereo not shown) [Example 43C.23]

same assay, conditions: test compound at 1 μM; first value quoted; read-out: % Axl tyrosine kinase inhibition at 1 μM concentration

SMILES	inhibition at 1 µM [%]
COc1cc(-c2cnc(N)c(-c3nc4cccnc4o3)c2)ccc1OCCN1CCCC1 [Example 43C.1, 5-[3-methoxy-4-(2-pyrrolidin-1-ylethoxy)phenyl]-3-oxazolo[5,4-b]pyridin-2-yl-pyridin-2-amine]	99.4
COc1cc(-c2cnc(N)c(-c3nc4ncccc4o3)c2)ccc1OCCN1CCOCC1 [Example 43C.2, 5-[3-methoxy-4-(2-morpholinoethoxy)phenyl]-3-oxazolo[4,5-b]pyridin-2-yl-pyridin-2-amine]	97.1

same assay, conditions: test compound at 30 μM

SMILES	% of Axl tyrosine kinase activity inhibited at a concentration of 30 μM
Nc1ncc(-c2ccc(OCCN3CCCCC3)cc2)cc1-c1nc2ncccc2o1 [Example 43B.8]	^†††the compound disclosed in Example 43B.8 inhibited 98% of Axl tyrosine kinase activity at a concentration of 30 μM.
Nc1ncc(-c2ccc(OCCCN3CCNCC3)cc2)cc1-c1nc2ncccc2o1 [Example 43B.38]	^††††the compound disclosed in Example 43B.38 inhibited 95.3% of Axl tyrosine kinase activity at a concentration of 30 μM.
